Test results from patent US4593090A, “Novel nitrosourea compounds, method for preparing same, and pharmaceutical composition containing same” (Gogo Kimura, priority 1981, dated 1986).

Columns and labels:
Leukemia L1210 = assay: Activity against Leukemia L1210, intraperitoneal, increase in life span of mice; format: in vivo, female mice (BDF1 family); settings: for ED (maximum ILS) / ED30: Mus musculus, L1210, ip, ip once a day for 5 successive days; for ED (maximum ILS): daily dosage giving maximum increase of life span, read-out: O.D. (optimum dosage); for ED30: daily dosage increasing average survival days by 30%, read-out: ILS30; for Survivors after 60 days / Max. ILS % / Therapeutic ratio TR: ip; for Survivors after 60 days: 6-membered group; for Max. ILS %: 60-day observation, versus control; for Therapeutic ratio TR: O.D./ILS30
Procedure: Tests were conducted in accordance with the method for measuring antitumor activity of National Cancer Center Tokyo (A, Hoshi et al, Farumashia 9 464 (1973)). Test compounds were each intraperitoneally (referred to as ip) or orally (referred to as op) administered once a day for 5 successive days to a 6-membered group of femal mice (BDF1 family, each weighing 20 to 23 g) 24 hours after 1×10^5 cells of Leukemia L1210 have been implantated into the abdominal cavities of the mice, and the effect was evaluated by comparing the survival days of treated groups with those of an untreated group of mice (control group) in 60-day observation. An increase percentage of life span (ILS%) was calculated from said average survival days compared with those of the control group. Further, therapeutic ratio (O.D./ILD30, referred to as T.R.) of each tested compound was calculated from the daily dosage of the compound necessary to increase said average survival days by 30% as compared with the control group (this dosage is referred to as ILS 30) and the daily dosage giving a maximum increase of life span to mice implantated with L1210 cells, namely an optimum dosage (referred to as O.D.). The results of five successive days intraperitoneal administrations of test compounds were shown in Tables I to III, and those of five successive oral administrations in Table IV.

[1] = Acute toxicity (LD50, Behrens-Karber method); format: in vivo, ICR mice; settings: mouse, in vivo, ip, mortality during 30 days
Procedure: Test compounds, dissolved or suspended in 0.5% aqueous CMC, were each intraperitoneally administered to ICR mice in a dose of 0.1 ml per 10 g body weight. LD50 (mg/kg) value of each test compound was calculated from the mortality of mice during 30 days by the Behrens-Karber method.

| Structure (SMILES) | ED (maximum ILS) (Leukemia L1210) [mg/kg] | ED30 (Leukemia L1210) [mg/kg] | Survivors after 60 days (Leukemia L1210) | Max. ILS % (Leukemia L1210) [%] | Therapeutic ratio TR (Leukemia L1210) | LD50 at 720 h [1] [mg/kg] |
| --- | --- | --- | --- | --- | --- | --- |
| COCC(C)O[C@H]1O[C@H](CN(CC2CC2)C(=O)N(CCCl)N=O)[C@@H](O)[C@H](O)[C@H]1O (stereo partly drawn) [Compound 34, 3-cyclopropylmethyl-3-(1-methyl-2-methoxyethyl α-D-glucopyranose-6-yl)-1-(2-chloroethyl)-1-nitrosourea] | 150 | 2.34 | 6/6 | > 700 | 64.1 | 480 |
| CC(C)CN(C[C@H]1O[C@H](OC2CCCCC2)[C@H](O)[C@@H](O)[C@@H]1O)C(=O)N(CCCl)N=O [Compound 36, 3-isobutyl-3-(cyclohexylα-D-glucopyranose-6-yl)-1-(2-chloroethyl)-1-nitrosourea] | 180 | 3.69 | 6/6 | > 700 | 48.8 | 580 |
| CCC(C)N(C[C@H]1O[C@H](OC2CCCCC2)[C@H](O)[C@@H](O)[C@@H]1O)C(=O)N(CCCl)N=O (stereo partly drawn) [Compound 37, 3-sec-butyl-3-(cyclohexyl α-D-glucopyranose-6-yl)-1-(2-chloroethyl)-1-nitrosourea] | 200 | 3.69 | 5/6 | > 620 | 54.2 | 605 |
| C=CCN(C[C@H]1O[C@H](OC2CCCCC2)[C@H](O)[C@@H](O)[C@@H]1O)C(=O)N(CCCl)N=O [Compound 38, 3-(2-propenyl) -3-(cyclohexyl α-D-glucopyranose-6-yl)-1-(2-chloroethyl)-1-nitrosourea] | 150 | 3.28 | 6/6 | > 700 | 45.7 | 430 |
| O=NN(CCCl)C(=O)N(CCCCO)C[C@H]1O[C@H](OC2CCCCC2)[C@H](O)[C@@H](O)[C@@H]1O [Compound 43] | 160 | 4.68 | 4/6 | > 435 | 34.2 | 520 |
| O=NN(CCCl)C(=O)N(CC1CC1)C[C@H]1O[C@H](OC2CCCCC2)[C@H](O)[C@@H](O)[C@@H]1O [Compound 44, 3-cyclopropylmethyl-3-(cyclohexyl α-D-glucopyranose-6-yl)-1-(2-chloroethyl)-1-nitrosourea] | 150 | 3.32 | 6/6 | > 700 | 45.2 | 435 |
| O=NN(CCCl)C(=O)N(CCC1CCCC1)C[C@H]1O[C@H](OC2CCCCC2)[C@H](O)[C@@H](O)[C@@H]1O [Compound 45, 3-(2-cyclopentylethyl)-3-(cyclohexyl α-D-glucopyranose-6-yl)-1-(2-chloroethyl)-1-nitrosourea] | 180 | 4.22 | 5/6 | > 625 | 42.7 | 560 |
| O=NN(CCCl)C(=O)N(Cc1ccccc1)C[C@H]1O[C@H](OC2CCCCC2)[C@H](O)[C@@H](O)[C@@H]1O [Compound 46, 3-benzyl-3-(cyclohexyl α-D-glucopyranose-6-yl)-1-(2-chloroethyl)-1-nitrosourea] | 150 | 3.9 | 4/6 | > 425 | 38.5 | 510 |
| Cc1ccc(CN(C[C@H]2O[C@H](OC3CCCCC3)[C@H](O)[C@@H](O)[C@@H]2O)C(=O)N(CCCl)N=O)cc1 [Compound 47, 3-(p-methylbenzyl)-3-(cyclohexyl α-D-glucopyranose-6-yl)-1-(2-chloroethyl)-1-nitrosourea] | 170 | 4.97 | 4/6 | > 440 | 34.2 | 545 |
| COc1ccc(CN(C[C@H]2O[C@H](OC3CCCCC3)[C@H](O)[C@@H](O)[C@@H]2O)C(=O)N(CCCl)N=O)cc1 [Compound 48, 3-(p-methoxybenzyl)-3-(cyclohexyl α-D-glucopyranose-6-yl)-1-(2-chloroethyl)-1-nitrosourea] | 170 | 4.64 | 4/6 | > 445 | 36.6 | 530 |
| COc1cccc(CN(C[C@H]2O[C@H](OC3CCCCC3)[C@H](O)[C@@H](O)[C@@H]2O)C(=O)N(CCCl)N=O)c1OC [Compound 49, 3-(2,3-dimethoxybenzyl)-3-(cyclohexyl α-D-glucopyranose)-6-yl)-1-(2-chloroethyl-1-nitrosourea] | 170 | 4.74 | 4/6 | > 420 | 35.9 | 560 |
| COc1ccc(CO[C@H]2O[C@H](CN(CC(C)C)C(=O)N(CCCl)N=O)[C@@H](O)[C@H](O)[C@H]2O)cc1 [Compound 51, 3-isobutyl-3-(p-methoxybenzyl α-D-glucopyranose-6-yl)-1-(2-chloroethyl)-1-nitrosourea] | 120 | 3.3 | 4/6 | > 430 | 36.4 | 350 |
| COc1cc(CO[C@H]2O[C@H](CN(CC(C)C)C(=O)N(CCCl)N=O)[C@@H](O)[C@H](O)[C@H]2O)cc(OC)c1OC [Compound 53, 3-isobutyl-3-(3,4,5-trimethoxybenzyl α-D-glucopyranose-6-yl)-1-(2-chloroethyl)-1-nitrosourea] | 120 | 3.95 | 4/6 | > 425 | 30.4 | 350 |
| CC(C)CN(C[C@H]1O[C@H](OCc2ccccc2)[C@H](O)[C@@H](O)[C@@H]1O)C(=O)N(CCCl)N=O [Compound 54, 3-isobutyl-3-(benzyl α-D-glucopyranose-6-yl)-1-(2-chloroethyl)-1-nitrosourea] | 150 | 3.93 | 4/6 | > 450 | 38.2 | 450 |
| CCCCO[C@H]1O[C@H](CO)[C@@H](O)[C@H](O)[C@H]1N(CCCC)C(=O)N(CCCl)N=O [Compound 55, 3-n-butyl-3-(n-butyl α-D-glucopyranose-2-yl)-1-(2-chloroethyl)-1-nitrosourea] | 180 | 6.05 | 3/6 | > 350 | 29.8 | 465 |
| C=C(C)CN(C(=O)N(CCCl)N=O)[C@H]1[C@@H](OCCCC)O[C@H](CO)[C@@H](O)[C@@H]1O [Compound 56, 3-(2-methyl-2-propenyl)-3-(n-butyl α-D-glucopyranose-2-yl)-1-(2-chloroethyl)-1-nitrosourea] | 170 | 5.38 | 3/6 | > 360 | 31.6 | 460 |
